Data from patent publication US20230160007A1, “KIT FOR EVALUATING SENSITIVITY OF PATIENT TO MET INHIBITOR” (Beijing Neurosurgical Institute, priority 2020, published 2023).

How the values were obtained:
Assay type in all cases: cell-based, human
[1] = system: glioblastoma PDC sample A; assay: CCK-8 viable count of glioblastoma PDC sample A after drug treatment; conditions: for Living cell proportion (a value relative to CCK8): PDC sample A, 72 h
Description: (§1) Enzymolysis was separately carried out on the four collected glioblastoma samples to obtain glioblastoma PDC samples A, B, C and D.
(§2) The glioblastoma PDC samples A, B, C and D were taken, re-suspended by using a special culture medium, and then respectively inoculated into a 96-well cell culture plate, so that each culture well contained 3000 cells. After inoculation was completed, the 96-well cell culture plate was placed in an incubator containing 5% CO2 at 37° C., and incubation was performed for 24 h. […] After the drug was added, the incubation was continued to be performed for 72 h, then the viable count in each culture well was measured by using CCK-8, and the results are shown in Table 1, Table 2, FIG. 11 and FIG. 12.

[2] = system: glioblastoma PDC sample B; assay: CCK-8 viable count of glioblastoma PDC sample B after drug treatment; conditions: for Living cell proportion (a value relative to CCK8): PDC sample B, 72 h
Description: as §1
(§3) The glioblastoma PDC samples A, B, C and D were taken, re-suspended by using a special culture medium, and then respectively inoculated into a 96-well cell culture plate, so that each culture well contained 3000 cells. After inoculation was completed, the 96-well cell culture plate was placed in an incubator containing 5% CO2 at 37° C., and incubation was performed for 24 h.

[3] = system: glioblastoma PDC sample C; assay: CCK-8 viable count of glioblastoma PDC sample C after drug treatment; conditions: for Living cell proportion (a value relative to CCK8): 72 h
Description: as §1, §3

[4] = system: glioblastoma PDC sample D; assay: CCK-8 viable count of glioblastoma PDC sample D after drug treatment; conditions: for Living cell proportion (a value relative to CCK8): 72 h
Description: as §1, §2

Cn1nnc2c(C(N)=O)ncn2c1=O [TMZ, temozolomide]
Living cell proportion (a value relative to CCK8) ([1]; TMZ 50 μM): 0.8481 | Living cell proportion (a value relative to CCK8) ([1]; TMZ 100 μM): 0.8696 | Living cell proportion (a value relative to CCK8) ([1]; TMZ 150 μM): 0.7968 | Living cell proportion (a value relative to CCK8) ([1]; TMZ 200 μM): 0.7843 | Living cell proportion (a value relative to CCK8) ([1]; TMZ 300 μM): 0.7824 | Living cell proportion (a value relative to CCK8) ([1]; TMZ 400 μM): 0.6482 | Living cell proportion (a value relative to CCK8) ([1]; TMZ 600 μM): 0.5261 | Living cell proportion (a value relative to CCK8) ([1]; TMZ 800 μM): 0.4052 | Living cell proportion (a value relative to CCK8) ([1]; TMZ 1000 μM): 0.2577 | Living cell proportion (a value relative to CCK8) ([2]; TMZ 50 μM): 0.8549 | Living cell proportion (a value relative to CCK8) ([2]; TMZ 100 μM): 0.8905 | Living cell proportion (a value relative to CCK8) ([2]; TMZ 150 μM): 0.9369 | Living cell proportion (a value relative to CCK8) ([2]; TMZ 200 μM): 0.8763 | Living cell proportion (a value relative to CCK8) ([2]; TMZ 300 μM): 0.724 | Living cell proportion (a value relative to CCK8) ([2]; TMZ 400 μM): 0.7183 | Living cell proportion (a value relative to CCK8) ([2]; TMZ 600 μM): 0.5489 | Living cell proportion (a value relative to CCK8) ([2]; TMZ 800 μM): 0.345 | Living cell proportion (a value relative to CCK8) ([2]; TMZ 1000 μM): 0.3175 | Living cell proportion (a value relative to CCK8) ([3]; TMZ 50 μM): 0.6188 | Living cell proportion (a value relative to CCK8) ([3]; TMZ 100 μM): 0.5841 | Living cell proportion (a value relative to CCK8) ([3]; TMZ 150 μM): 0.4536 | Living cell proportion (a value relative to CCK8) ([3]; TMZ 200 μM): 0.4768 | Living cell proportion (a value relative to CCK8) ([3]; TMZ 300 μM): 0.4315 | Living cell proportion (a value relative to CCK8) ([3]; TMZ 400 μM): 0.3164 | Living cell proportion (a value relative to CCK8) ([3]; TMZ 600 μM): 0.2817 | Living cell proportion (a value relative to CCK8) ([3]; TMZ 800 μM): 0.2834 | Living cell proportion (a value relative to CCK8) ([3]; TMZ 1000 μM): 0.3585 | Living cell proportion (a value relative to CCK8) ([4]; TMZ 50 μM): 0.7828 | Living cell proportion (a value relative to CCK8) ([4]; TMZ 100 μM): 0.647 | Living cell proportion (a value relative to CCK8) ([4]; TMZ 150 μM): 0.5799 | Living cell proportion (a value relative to CCK8) ([4]; TMZ 200 μM): 0.5468 | Living cell proportion (a value relative to CCK8) ([4]; TMZ 300 μM): 0.4681 | Living cell proportion (a value relative to CCK8) ([4]; TMZ 400 μM): 0.3984 | Living cell proportion (a value relative to CCK8) ([4]; TMZ 600 μM): 0.3435 | Living cell proportion (a value relative to CCK8) ([4]; TMZ 800 μM): 0.2684 | Living cell proportion (a value relative to CCK8) ([4]; TMZ 1000 μM): 0.2529

C[C@@H](Oc1cc(-c2cnn(C3CCNCC3)c2)cnc1N)c1c(Cl)ccc(F)c1Cl [crizotinib]
sensitivity of the glioblastoma PDC sample to the drug ([1]; PDC sample A (MET exon 10 and exon 19 deleted), in words): sensitive | Living cell proportion (a value relative to CCK8) ([1]; crizotinib 0.5 μM): 0.824 | Living cell proportion (a value relative to CCK8) ([1]; crizotinib 1 μM): 0.5684 | Living cell proportion (a value relative to CCK8) ([1]; crizotinib 1.5 μM): 0.4624 | Living cell proportion (a value relative to CCK8) ([1]; crizotinib 2 μM): 0.3834 | Living cell proportion (a value relative to CCK8) ([1]; crizotinib 3 μM): 0.3316 | Living cell proportion (a value relative to CCK8) ([1]; crizotinib 6 μM): 0.2663 | Living cell proportion (a value relative to CCK8) ([1]; crizotinib 9 μM): 0.2482 | Living cell proportion (a value relative to CCK8) ([1]; crizotinib 12 μM): 0.2387 | Living cell proportion (a value relative to CCK8) ([1]; crizotinib 15 μM): 0.2518 | sensitivity of the glioblastoma PDC sample to the drug ([2]; PDC sample B (MET exon 10 deleted), in words): sensitive | Living cell proportion (a value relative to CCK8) ([2]; crizotinib 0.5 μM): 0.9128 | Living cell proportion (a value relative to CCK8) ([2]; crizotinib 1 μM): 0.7978 | Living cell proportion (a value relative to CCK8) ([2]; crizotinib 1.5 μM): 0.7125 | Living cell proportion (a value relative to CCK8) ([2]; crizotinib 6 μM): 0.3689 | Living cell proportion (a value relative to CCK8) ([2]; crizotinib 9 μM): 0.3059 | Living cell proportion (a value relative to CCK8) ([2]; crizotinib 12 μM): 0.2806 | Living cell proportion (a value relative to CCK8) ([2]; crizotinib 15 μM): 0.2769 | Living cell proportion (a value relative to CCK8) ([3]; crizotinib 0.5 μM): 0.9496 | Living cell proportion (a value relative to CCK8) ([3]; crizotinib 1 μM): 0.8619 | Living cell proportion (a value relative to CCK8) ([3]; crizotinib 2 μM): 0.8082 | Living cell proportion (a value relative to CCK8) ([3]; crizotinib 6 μM): 0.6643 | Living cell proportion (a value relative to CCK8) ([3]; crizotinib 9 μM): 0.4383 | Living cell proportion (a value relative to CCK8) ([3]; crizotinib 12 μM): 0.4003 | Living cell proportion (a value relative to CCK8) ([3]; crizotinib 15 μM): 0.3824 | sensitivity of the glioblastoma PDC sample to the drug ([3]; in words): sensitive | Living cell proportion (a value relative to CCK8) ([4]; crizotinib 0.5 μM): 0.9247 | Living cell proportion (a value relative to CCK8) ([4]; crizotinib 1 μM): 0.8162 | Living cell proportion (a value relative to CCK8) ([4]; crizotinib 1.5 μM): 0.7327 | Living cell proportion (a value relative to CCK8) ([4]; crizotinib 2 μM): 0.6986 | Living cell proportion (a value relative to CCK8) ([4]; crizotinib 3 μM): 0.7544 | Living cell proportion (a value relative to CCK8) ([4]; crizotinib 6 μM): 0.5995 | Living cell proportion (a value relative to CCK8) ([4]; crizotinib 9 μM): 0.4381 | Living cell proportion (a value relative to CCK8) ([4]; crizotinib 12 μM): 0.3812 | Living cell proportion (a value relative to CCK8) ([4]; crizotinib 15 μM): 0.4752 | sensitivity of the glioblastoma PDC sample to the drug ([4]; in words): sensitive
